{"source": "paper PMC6984391", "about": "“Anion carriers as potential treatments for cystic fibrosis: transport in cystic fibrosis cells, and additivity to channel-targeting drugs” (Chemical Science, 2019)", "key": {"[1]": {"assay": "Affinity to Cl- by 1H NMR titration with Bu4N+Cl- in DMSO-d6/H2O (200:1)", "format": "binding", "settings": "1H NMR titration with Bu4N^+Cl^– in DMSO-d6/H2O (200 : 1) at 298 K; new compound", "procedure": "The binding constant to chloride was assessed using 1H NMR titrations with n-Bu4N+Cl- in DMSO-d6/H2O (200:1). The hygroscopic guest n-Bu4N+Cl- and the host compounds were dried under high vacuum to remove residual solvents or water prior to solution preparation. The concentration of the host was around 1 mM in all titrations; the concentration of guest and the volumes of the aliquots of guest solution added to the host solution were varied o ver the experiments. The guest solutions contained the same concentrations of host as the starting host solution (i.e., n-Bu4N+Cl- was dissolved in a solution of ~1 mM host in DMSO-d6/H2O (200:1)), […]\nNMR titration binding studies were performed using a Varian 500b NMR spectrometer at 298\nK. The shift of both NH signals in DMSO were fitted to 1:1 binding model using a least -squares fitting procedure in a custom -made Excel spreadsheet .\nFigure S6. Downfield region of the 1H NMR spectra from the titration of tetrabutylammonium chloride into 12 […]\n(1 picture or pasted object on this page, not shown here)"}, "YFP-FRT cells": {"system": "YFP-FRT cells", "assay": "Persistence of anion transport by fluorescence microscopy in YFP-FRT cells", "format": "cell-based, Fischer rat", "settings": "10 μM, continuous perfusion", "procedure": "the PBS bathing cells 10 minutes prior to PBS iodide addition, whereas UTP was added to cells with the PBS iodide solution. Fluorescence was measured for 14 seconds; 2 seconds before and 12 seconds after injection of 110 µl PBS iodide solution (137 mM Cl- replaced by I-) into each well (to obtain a final concentration of I- of 100 mM).\nWe expressed cell fluorescence values (F) relative to the fluorescence value immediately before I- injection (F0), excluding the initial decrease, which likely represents the quenching of extracellular YFP released from cells and signal reduction accompanying the increase in solution volume bathing cells. To quantify anion transport by test anionophores, we determined the initial slope of the fluorescence decay following I - addition by fitting first order exponential functions to the last 12 seconds of each fluorescence recording. […]\nfluorescence microscopy as described previously.10 In brief, YFP-FRT cells were washed 3x with PBS before transfer to a perfusion chamber mounted on the stage of a Leica DM IRB microscope. […] Any anionophore not incorporated into YFP-FRT cell membranes was removed from the chamber by perfusion with PBS when fluorescence measurements commenced. […]\nFluorescence data from 5 – 9 cells per coverslip were analysed with 4 coverslips tested for each anionophore. […]"}, "[2]": {"set-up": "method as in ref [20], [21], [23], [24], [29] (Reference column)", "settings": "transporter preincorporated in LUVs (70% POPC + 30% cholesterol), 25 mM NaCl gradient, 225 mM NaNO3; ref [20], [21], [23], [24], [29]; cited from earlier work"}}, "data": [{"smiles": "CCOC(=O)[C@]12CC[C@@H](NC(=S)Nc3ccc([N+](=O)[O-])cc3)C[C@@H]1C[C@@H](NC(=S)Nc1ccc([N+](=O)[O-])cc1)CC2", "note": "[Compound 12]", "values": [{"measurement": "K a to Cl^– in DMSO", "setting": "[1]", "value": "1.7 × 10^3 M^–1"}, {"measurement": "duration of anion transport after anionophore delivery", "setting": "YFP-FRT cells", "value": "up to 2 h"}]}, {"smiles": "CCOC(=O)[C@]12CC[C@@H](NC(=S)Nc3cc(C(F)(F)F)cc(C(F)(F)F)c3)C[C@@H]1C[C@@H](NC(=S)Nc1cc(C(F)(F)F)cc(C(F)(F)F)c1)CC2", "note": "[Compound 15]", "values": [{"measurement": "Specific initial rate [I]", "setting": "[2]", "value": 2600, "unit": "s^–1"}]}]}
